# Measurements taken from patent US5873359A, “Methods and devices for treating pulmonary vasoconstriction and asthma” (The General Hospital Corporation, priority 1994, dated 1999).
# Read-outs that look alike come from different tables or passages of the source.
# Key:
# control lambs = assay: Inhaled NO in control lambs with no drug infusion; type: in vivo, Suffolk lambs; details: 80 ppm NO, FiO2 0.6-0.7, two lambs
# Description: Eight Suffolk lambs weighing 25-35 kg underwent a sterile thoracotomy in order to place a left atrial line, tracheostomy and femoral artery line under general endotracheal anesthesia with halothane/oxygen three days before study. After three days of recovery the lambs underwent sterile placement of a 7 French thermal dilution pulmonary artery monitoring catheter under local anesthesia.
# Awake unanesthetized lambs were studied in order to avoid general anesthesia which can blunt hypoxic vasoconstriction. Lambs were placed in a Babraham cage and allowed to drink and eat ad lib. Two studies were performed 2 days apart on each of six lambs. After the study the lambs were sacrificed with an overdose of barbiturate and heir lungs were fixed, stained and examined by light microscopy for pathological changes.
# A pulmonary vasodilator dose response curve plotting changes in PAP as a function of inhaled NO concentration during U46619 infusion was produced for eight lambs breathing a series of increasing NO/O2 mixtures of 5, 10, 20, 40, and 80 ppm NO for six minutes (FIG. 1). Each level of NO exposure was followed by six minutes of breathing the oxygen mixture without NO (FIG. 2). A second exposure to NO was examined for similar periods. Subsequently, a control period breathing the oxygen mixture was studied six minutes after ceasing U46619 infusion. At each three and six minute time period after administering or discontinuing NO during the study, we measured mean and phasic pulmonary artery pressure (PAP), left atrial pressure (LAP), systemic arterial pressure (SAP) and central venous pressure (CVP). All pressures were recorded on a Hewlett Packard multi-channel strip chart recorder with transducers zeroed to atmospheric pressure at the mid point of the thorax (e.g., see FIG. 3). Cardiac output (CO) was measured by thermal dilution as the average of two determinations injecting 5 ml of 0° C. Ringers lactate. Pulmonary vascular resistance (PVR) and systemic vascular resistance (SVR) were computed by standard formulae; PVR measured at each inhaled NO concentration is shown in FIG. 4. Appropriate statistical analyses were performed, and all data were expressed as mean ± standard error.
# Two control lambs with no drug infusion breathed 80 ppm NO at an F1 O2 of 0.6-0.7. There was no change of mean PAP, SAP, CO or SVR in these lambs.
# [1] = system: acute hypoxic pulmonary hypertension; assay: Inhaled NO in lambs with pulmonary vasoconstriction induced by hypoxia; type: in vivo
# Experimental: Five awake lambs were studied during a period of breathing a hypoxic gas mixture to induce acute hypoxic pulmonary hypertension. Three lambs were excluded due to sepsis and heart failure. Hemodynamic monitoring techniques similar to those described above were used. We employed a non-rebreathing circuit containing a 25 liter reservoir bag and the Fi O2 was reduced to 0.06-0.08 to produce a mean PAP near 25 mm Hg at a Pa O2 near 30 mm Hg. Either 40 or 80 ppm NO was then added to the inspired gas mixture. Total gas flows were maintained at 35 l/min to prevent rebreathing due to hyperventilation. The inspired Fi O2 was monitored with n electrode (model 5590, Hudson Co., Temecala, Calif.) and pure CO2 was added to the inspired gas to maintain the end tidal CO2 concentration at 4.5-6%. Measurements of central hemodynamics and gas exchange were obtained at baseline, during hypoxia, and at 3 and 6 minutes of No breathing during hypoxia. Comparisons were performed using paired t-tests.
# [2] = system: persistent pulmonary hypertension of the newborn (PPHN); type: in vivo, human
# Experimental: First subject. Through compassionate use, nitric oxide was administered to an infant suffering from persistent pulmonary hypertension and congenital heart disease. As a result of prolonged ventilation, absence of a preductal arterial blood sampling site, and the existence of the atrial-ventricular (AV) canal, the patient was not included in the PPHN study mentioned above.
# The patient was a 3225 gm, full term person who had been treated with extracorporeal membrane oxygenation (ECMO) because of the severity of their congenital heart disease and profound hypoxemia. They had been taken off ECMO and was being maintained intubated and ventilated in the newborn intensive care unit. They subsequently became progressively hypoxemic, as reflected in their post-ductal pulse oximetry (POX) values. By the time they were taken to the catheterization laboratory to confirm the existence of the A-V canal and to determine if some emergent cardiac surgery was needed, they were receiving maximal medical and ventilatory life support and remained dangerously hypoxemic. Under these circumstances, we were granted consent to treat the patient with nitric oxide.
# Upon arrival to the catheterization laboratory, the patient was extremely cyanotic. They were treated with fentanyl, oxygen, hyperventilation and intravenous fluid boluses to stabilize them prior to administering NO.
# We utilized a regulator to step-down the pressure of the NO into a blender, which allowed us to adjust the relative amounts of the 800 ppm NO/N2 and 100% N2 supplies. Treating the patient with pure oxygen, we increased the flow of N2 through a flow regulator into the inspiratory circuit of the breathing cicuit until the FI O2 was 0.9. This provided a 1:10 dilution of the nitrogen gas. We then used the blender to adjust the relative amounts of N2 and […] to provide 0 to 80 ppm of NO.
# [3] = hypoxia + 40-80 ppm NO, FiO2 0.06-0.08, n = 5, mean ± S.E.
# [4] = hypoxia + 40-80 ppm NO, n = 5, mean ± S.E.
# [5] = hypoxia + 40-80 ppm NO, n = 5, mean ± S.E., p < .01 vs hypoxia
# [6] = NO 80 ppm, restarted after OFF #1
smiles,measurement,setting,value
"[N]=O [NO, nitric oxide]",CO,control lambs,no change
same,SAP,control lambs,no change
same,SVR,control lambs,no change
same,mean PAP,control lambs,no change
same,Pa O2 during hypoxia with vs without NO,[1]; 40 or 80 ppm NO,similar
same,Pv O2 during hypoxia with vs without NO,[1]; 40 or 80 ppm NO,similar
same,drop of mean PVR,[1]; 40 or 80 ppm NO,33%
same,pulmonary artery pressure,[1]; 40 or 80 ppm NO,returned to control levels
same,Pa CO2,[1]; [3],40.0 ± 2.7 mm Hg
same,PaO2,[1]; [3],31.1 ± 1.7 mm Hg
same,Pv O2,[1]; [3],19.8 ± 3.2 mm Hg
same,pHa,[1]; [3],7.40 ± 0.03
same,CO,[1]; [4],7.56 ± 0.79 L/min
same,CVP,[1]; [4],2.8 ± 1.6 mm Hg
same,LAP,[1]; [4],4.2 ± 1.0 mm Hg
same,SVR,[1]; [4],13.7 ± 1.0 mm Hg/l/min
same,PAP,[1]; [5],18.7 ± 1.1 mm Hg
same,PVR,[1]; [5],2.01 ± 0.35 mm Hg/l/min
same,SAP,[1]; [5],106 ± 5 mm Hg
same,"arterial saturation, pulse oximetry values and arterial partial pressure of oxygen",[2]; NO 20-80 ppm,"modest increase in arterial saturation, pulse oximetry values, and arterial partial pressure of oxygen"
same,effect on systemic blood pressure,[2]; NO 20-80 ppm,no adverse effect on systemic blood pressure
same,"O2 SAT, PA",[2]; NO 20 ppm,70%
same,"O2 SAT, POX (pulse oximeter), postductal",[2]; NO 20 ppm,91%
same,"O2 SAT, RA",[2]; NO 20 ppm,67%
same,"O2 SAT, postductal ART",[2]; NO 20 ppm,85%
same,"mean pressure, ART",[2]; NO 20 ppm,45 mmHg
same,"mean pressure, PA",[2]; NO 20 ppm,50 mmHg
same,"mean pressure, RA",[2]; NO 20 ppm,5 mmHg
same,"postductal arterial PO2, ART",[2]; NO 20 ppm,46 mmHg
same,"O2 SAT, PA",[2]; NO 40 ppm,74%
same,"O2 SAT, POX (pulse oximeter), postductal",[2]; NO 40 ppm,93%
same,"O2 SAT, RA",[2]; NO 40 ppm,72%
same,"O2 SAT, postductal ART",[2]; NO 40 ppm,74%
same,"mean pressure, ART",[2]; NO 40 ppm,43 mmHg
same,"mean pressure, PA",[2]; NO 40 ppm,52 mmHg
same,"mean pressure, RA",[2]; NO 40 ppm,4 mmHg
same,"postductal arterial PO2, ART",[2]; NO 40 ppm,50 mmHg
same,"O2 SAT, PA",[2]; NO 80 ppm,75%
same,"O2 SAT, RA",[2]; NO 80 ppm,74%
same,"mean pressure, ART",[2]; NO 80 ppm,47 mmHg
same,"mean pressure, PA",[2]; NO 80 ppm,53 mmHg
same,"mean pressure, RA",[2]; NO 80 ppm,5 mmHg
same,"O2 SAT, POX (pulse oximeter), postductal","[2]; NO 80 ppm, first",94%
same,"O2 SAT, postductal ART","[2]; NO 80 ppm, first",88%
same,"postductal arterial PO2, ART","[2]; NO 80 ppm, first",51 mmHg
same,"O2 SAT, POX (pulse oximeter), postductal",[2]; [6],90%
same,"O2 SAT, postductal ART",[2]; [6],85%
same,"postductal arterial PO2, ART",[2]; [6],48 mmHg
same,arterial saturation and oxygen gas tension on discontinuation,[2]; after nitric oxide was discontinued,precipitously dropped
same,oxygen saturation and blood gas tension on restart,[2]; nitric oxide restarted,succeeded in improving the oxygen saturation and blood gas tension
same,gas exchange,[2]; pulmonary hypertension and congenital heart disease,improving gas exchange
same,oxygenation level on second weaning,[2]; subsequent attempt to wean off nitric oxide,deteriorated to dangerously low levels
